These results are taken from publication PMC5234269 (Chemical communications (Cambridge, England), 2015).

One assay addresses D3R (Homo sapiens, UniProt P35462). Description: Radioligand binding to D3R with and without Na+.
For another assay, the target named is D2R (Homo sapiens, UniProt P14416). Format: binding.
Assay [1] concerns Tyr(7.43) to Cys mutant receptor. Particulars: mutant vs wild type; cited from earlier work.

pKi: −log10 of the molar value. Values joined by “and” are separate entries in the source; they are usually repeats but may differ in a detail not shown here. Equal values may be shown once. Read-outs that look alike come from different tables or passages of the source.

Sequence of D2R (P14416 whole entry): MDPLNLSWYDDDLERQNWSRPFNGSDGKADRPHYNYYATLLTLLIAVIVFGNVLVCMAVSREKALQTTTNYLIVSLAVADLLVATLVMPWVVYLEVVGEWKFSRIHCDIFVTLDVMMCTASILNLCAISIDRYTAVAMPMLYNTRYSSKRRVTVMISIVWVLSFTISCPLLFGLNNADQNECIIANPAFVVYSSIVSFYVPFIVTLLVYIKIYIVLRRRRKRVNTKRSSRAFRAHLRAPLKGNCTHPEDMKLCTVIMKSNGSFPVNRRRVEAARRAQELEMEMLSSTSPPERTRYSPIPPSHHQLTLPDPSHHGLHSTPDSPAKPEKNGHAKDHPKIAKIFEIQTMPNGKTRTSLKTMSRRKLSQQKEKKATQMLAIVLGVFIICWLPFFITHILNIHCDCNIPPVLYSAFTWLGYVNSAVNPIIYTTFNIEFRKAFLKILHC
Sequence of D3R (P35462 whole entry): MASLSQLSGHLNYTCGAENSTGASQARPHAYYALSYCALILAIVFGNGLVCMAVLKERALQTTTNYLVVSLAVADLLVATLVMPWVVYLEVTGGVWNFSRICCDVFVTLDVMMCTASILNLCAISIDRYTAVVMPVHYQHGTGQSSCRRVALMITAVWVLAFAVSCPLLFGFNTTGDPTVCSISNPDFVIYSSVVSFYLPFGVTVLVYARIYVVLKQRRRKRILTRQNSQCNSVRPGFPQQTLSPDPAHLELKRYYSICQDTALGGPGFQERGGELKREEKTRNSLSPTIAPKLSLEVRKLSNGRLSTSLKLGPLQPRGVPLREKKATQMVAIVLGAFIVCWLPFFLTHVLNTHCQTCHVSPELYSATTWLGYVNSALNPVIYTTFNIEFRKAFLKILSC

A word on the pKi: it is the negative decadic logarithm of the Ki, by convention in mol/L. The low end stands for a large Ki, the high end for a small Ki. For the compound `CCc1cc(Cl)c(OC)c(C(=O)NC[C@@H]2CCCN2CC)c1O` [eticlopride], at D3R, the “effect of Na+ on binding to the D3R” value was “increased”. On D2R, the “increase of affinity for the D2R in the presence of Na+” value was ~ 3 fold. In addition, the pKi on D2R (Ki) is 9.17 and 9.57. In the case of `CN1CN(c2ccccc2)C2(CCN(CCCC(=O)c3ccc(F)cc3)CC2)C1=O` [methylspiperone], the “decrease of binding by mutation of Tyr(7.43) to Cys” value in assay [1] is recorded as 3 fold. For `O=C(CCCN1CCC2(CC1)C(=O)NCN2c1ccccc1)c1ccc(F)cc1` [spiperone], the “effect of presence or absence of Na+ on affinity for the D2R” value at D2R is “does not affect”. Turning to `CCN1CCCC1CNC(=O)c1cc(S(N)(=O)=O)ccc1OC` (stereo not drawn) [sulpiride], the “decrease of binding by mutation of Tyr(7.43) to Cys” value in assay [1] is listed as 185 fold. In addition, the “effect of Na+ on binding to the D3R” value at D3R (result in words, Fig. S2) is recorded as “increased”. In addition, on D2R (+Na+ vs -Na+), the “increase of affinity for the D2R in the presence of Na+” value is reported as ~ 23 fold. In the case of `CN(C)CCOC1=Cc2ccccc2Sc2ccc(Cl)cc21` [zotepine], on D2R (+Na+ vs -Na+), the “decrease of affinity for the D2R in the presence of Na+” value is recorded as ~ 7 fold.
